# Key:
# [1] = biological target: T1, human neurotensin receptor type 1 (hNTR-1) (Homo sapiens, UniProt P30989); experiment: Competition binding assay with [3H]-neurotensin on human NTR-1 membranes (CHO cells); conditions: read-out: NTR-1 binding affinity Ki, Human NTR-1
# T1 construct: purchased PerkinElmer; host or cells: CHO cells stably expressing human NTR-1 (membrane homogenates)
# BBB (brain) = system: BBB (brain); set-up: species or system C57Bl/6 mice; conditions: mouse, in vivo
# Method: (§1) Transport kinetics at the BBB and blood-retina barrier (BRB) of the conjugates of the invention was assessed using an in situ brain perfusion technique in adult male C57Bl/6 mice. Radiolabeled activated NT compounds were obtained either by coupling [3H]Tyr3-NT with the AG or by coupling a tritiated AG to NT molecules. NT was radiolabeled by catalytic dehalogenation of iodoTyr3-NT using tritium gas while AG was radiolabeled by coupling a tritiated propionyl succinimide ester to its N-terminus. The specific radioactivity (SRA) was typically in the range of 50 Ci/mmol. The total quantity of radioactivity prepared for each synthesis was generally between 100 and 1000 μCi.
# (§2) The in situ brain perfusion technique enables total control of the composition of the artificial perfusate in order to maintain the cells and vascularization of the brain under normal physiological and anatomical conditions within the animal, without the disrupting factor of systemic distribution. […]
# (§3) In situ brain perfusion of the radiolabeled compounds of the invention was performed during 120 s with a perfusate flow rate of 2 mL/min. The initial transport was expressed as the transfer coefficient Kin (relationship between distribution volume of the test compound, corrected for the vascular volume, and cerebral perfusion time).
# [2] = system: blood-retina barrier (BRB), eye; set-up: species or system C57Bl/6 mice; conditions: mouse, in vivo
# Method: as §1, §2, §3
# [3] = In vitro blood stability in freshly collected mouse blood (LC-MS/MS); assay type: in vitro ADME, Swiss (CD-1) mouse; conditions: whole blood, 2 μM, 37° C.
# Swiss (CD-1) mice = experiment: Hypothermic response upon four daily i.v. administrations in Swiss (CD-1) mice; assay type: in vivo, mouse; conditions: 4 mg/kg eq. NT daily i.v.
# Method: In order to determine the hypothermic responsiveness of mice upon repeated administrations of activated NT of the invention, Swiss (CD-1) mice were challenged to four daily intravenous (bolus) administrations of compound XIV at 4 mg/kg eq. NT. Rectal body temperature was monitored each day during 3 hours post-injection.
# mice [4] = experiment: Writhing test (acetic acid, acute visceral pain) in mice; assay type: in vivo, mouse; conditions: 30 min before acetic acid i.p.
# Method: In order to evaluate the antinociceptive potential of activated NT drugs, compound XIV was tested in an experimental pain model in mice. The writhing test was used as a model of acute visceral pain to assess the effect of compound XIV after intravenous administration. Given that the time to maximal decrease in body temperature in mice receiving compound XIV was around 45 min post-injection, we assumed similar pharmacodynamic kinetics in this pain model. Mice first received intravenous (bolus) injection of compound XIV at increasing dose levels, followed 30 min thereafter by intraperitoneal injection of acetic acid 0.7% (10 mL/kg). In control mice, intraperitoneal injection of acetic acid produces characteristic and quantifiable abdominal stretches (elongation of the body and extension of forelimbs) as early as 2-3 minutes following injection and reaching a peak between 5 and 15 min following injection. This time window was therefore used to evaluate the number of abdominal stretches (writhes counted over 10 min observation) in mice administered with either saline or compound XIV at 0.5, 1 or 5 mg/kg eq. NT.
# mice [5] = experiment: Tolerance / toxicity after i.v. bolus in mice (MTD, LD50); assay type: in vivo, mouse
# Method: NT, which is similar to that measured for compound I and compound II. […] When injected at 20 mg/kg eq. NT in mice, compound XIV was still well-tolerated with no additional safety concerns. […] NT. The Maximal Tolerated Dose (MTD) was 40 mg/kg eq. […] Given that the MED was about 0.1 mg/kg eq. NT, this pharmacodynamic/toxicity profile constitutes an excellent safety prerequisite since i) it prevents potentially lethal overdose due to exacerbated pharmacological hypothermia, and ii) using the intravenous (bolus) mode of administration, the therapeutic window, which is expressed as the fold increase between the MED and MTD, is about 400, with 4-fold security between the dose level eliciting a maximal hypothermic response and that inducing mild/non-lethal toxicity.
# [6] = system: FVB/N mice with KA-induced status epilepticus; experiment: Kainic acid-induced status epilepticus model (body temperature, seizures, neurodegeneration, neuroinflammation, mossy fiber sprouting); assay type: in vivo, mouse; conditions: 30 min after SE onset; first of two values, presumably 2 mg/kg eq. NT
# T1 sequence (P30989 whole entry): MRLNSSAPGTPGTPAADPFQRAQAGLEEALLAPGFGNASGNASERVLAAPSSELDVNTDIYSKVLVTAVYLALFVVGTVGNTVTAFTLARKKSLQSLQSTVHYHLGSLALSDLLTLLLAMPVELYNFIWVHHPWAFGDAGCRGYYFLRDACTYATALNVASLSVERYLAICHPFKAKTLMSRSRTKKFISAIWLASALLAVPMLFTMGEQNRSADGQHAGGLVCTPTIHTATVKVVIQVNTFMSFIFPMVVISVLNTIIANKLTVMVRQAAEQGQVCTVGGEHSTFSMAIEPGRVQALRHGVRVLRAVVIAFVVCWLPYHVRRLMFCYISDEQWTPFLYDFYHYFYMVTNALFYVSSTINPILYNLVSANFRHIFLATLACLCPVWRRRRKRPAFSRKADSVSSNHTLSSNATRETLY
compound,measurement,setting,value
"CCC(=O)N[C@@H]1CSSC[C@@H](C(=O)NCCOCCOCCOCCOCCOCCOCCC(=O)N[C@@H](CCCNC(=N)N)C(=O)N[C@@H](CCCNC(=N)N)C(=O)N2CCC[C@H]2C(=O)N[C@@H](Cc2ccc(O)cc2)C(=O)N[C@H](C(=O)N[C@@H](CC(C)C)C(=O)O)[C@@H](C)CC)NC(=O)CN(C)C(=O)[C@H](CCCNC(=N)N)NC(=O)[C@H](CC(C)C)NC(=O)[C@H](CCCNC(=N)N)NC(=O)[C@@H]2CCCCN2C(=O)[C@H](CCSC)NC1=O [Compound XIV, Pr-cMPipRLRSarC-PEG6-RRPYIL-OH]",Ki,[1],220 ± 60 pM
same,transfer coefficient Kin in the brain,BBB (brain),0.000365 mL/s/g
same,transfer coefficient Kin in the eye,[2],0.00033 mL/s/g
same,half-life,[3],1.6 h
same,"maximal decrease in body temperature, day 1","Swiss (CD-1) mice; day 1, 45 min post-injection",−5.5 °C
same,"mean decrease in body temperature, day 2 to day 4","Swiss (CD-1) mice; day 2 to day 4, 30 min post-injection",−3 °C
same,antinociceptive effect on writhe count,mice [4]; 0.5 mg/kg eq. NT i.v.,no effect
same,reduction of the writhe count,mice [4]; 1 mg/kg eq. NT i.v.,50%
same,reduction of the writhe count,mice [4]; 5 mg/kg eq. NT i.v.,64%
same,tolerance,"mice [5]; 20 mg/kg eq. NT, mice",well-tolerated
same,security between dose eliciting maximal hypothermic response and dose inducing mild/non-lethal toxicity,mice [5]; i.v. bolus,4 fold
same,therapeutic window (fold increase between the MED and MTD),mice [5]; i.v. bolus,about 400 fold
same,Maximal Tolerated Dose (MTD),"mice [5]; i.v. bolus, mice",40 mg/kg eq. NT
same,"LD50 (Lethal Dose, 50%)","mice [5]; i.v. bolus, mice, not reached",> 40 mg/kg eq. NT
same,mean decrease in body temperature compared to SE animals (first value),[6],−2.5 °C
